Patent publication US10059703B2, “3-alkyl-5-fluoro-4-substituted-imino-3,4-dihydropyrimidin-2(1H)-one derivatives as fungicides” (Adama Makhteshim Ltd., priority 2012, dated 2018)
Where two headings read alike, the source gives them in different places.

Key:
Septoria tritici = experiment: Fungicidal activity: leaf blotch of wheat, one-day protectant and three-day curative tests on wheat plants; assay type: in vivo; settings: Zymoseptoria tritici
Experimental: Example 16: Evaluation of Fungicidal Activity: Leaf Blotch of Wheat (Mycosphaerella graminicola; anamorph: Septoria tritici; Bayer code SEPTTR)
Wheat plants (variety Yuma) were grown from seed in a greenhouse in 50% mineral soil/50% soil-less Metro mix until the first leaf was fully emerged, with 7-10 seedlings per pot. These plants were inoculated with an aqueous spore suspension of Septoria tritici either prior to or after fungicide treatments. After inoculation the plants were kept in 100% relative humidity (one day in a dark dew chamber followed by two to three days in a lighted dew chamber) to permit spores to germinate and infect the leaf. The plants were then transferred to a greenhouse for disease to develop.
(§1) The following tables present the activity of typical compounds of the present disclosure when evaluated in these experiments. The effectiveness of the test compounds in controlling disease was determined by assessing the severity of disease on treated plants, then converting the severity to percent control based on the level of disease on untreated, inoculated plants.
as §1, with “table presents” for “tables present”

[1] = 24 h, One-Day Protectant (1 DP), 100 ppm, wheat plants (variety Yuma), read-out: SEPTTR 100 PPM 1 DP (% Disease Control rating)
[2] = 72 h, Three-Day Curative (3 DC), 100 ppm, wheat plants (variety Yuma), read-out: SEPTTR 100 PPM 3 DC (% Disease Control rating)

| Compound | melting point [°C] | pest or weed control at 100 ppm (Septoria tritici; [1]) [%] | pest or weed control at 100 ppm (Septoria tritici; [2]) [%] | pest or weed control at 100 ppm (Septoria tritici; 24 h, read-out: SEPTTR 100 PPM 1 DP (% Disease Control rating)) [%] | pest or weed control at 100 ppm (Septoria tritici; 72 h, read-out: SEPTTR 100 PPM 3 DC (% Disease Control rating)) [%] |
| --- | --- | --- | --- | --- | --- |
| C/N=c1\c(F)cn(S(=O)(=O)c2cccs2)c(=O)n1C [Compound F4] | 136 to 138 | 76 to 100 | 76 to 100 | – | – |
| C/N=c1\c(F)cn(S(=O)(=O)c2cc(Cl)sc2Cl)c(=O)n1C [Compound F9] | 157.1 to 158 | 76 to 100 | 76 to 100 | – | – |
| C/N=c1\c(F)cn(S(=O)(=O)c2cc(OC)ccc2OC)c(=O)n1C [Compound F11] | 115 to 117.8 | 76 to 100 | 76 to 100 | – | – |
| C/N=c1\c(F)cn(S(=O)(=O)c2c(C)cc(C)cc2C)c(=O)n1C [Compound F15] | 175.7 to 177.6 | 26 to 50 | 26 to 50 | – | – |
| C/N=c1\c(F)cn(S(=O)(=O)c2cn(C)nc2C)c(=O)n1C [Compound F18] | 147 to 149 | 26 to 50 | 76 to 100 | – | – |
| C/N=c1\c(F)cn(S(=O)(=O)c2c(C)noc2C)c(=O)n1C [Compound F19] | 130.1 to 131.1 | 0 to 25 | 51 to 75 | – | – |
| C/N=c1\c(F)cn(S(=O)(=O)c2cc(Cl)cc(Cl)c2)c(=O)n1C [Compound F20] | 135 to 136.9 | 26 to 50 | 0 to 25 | – | – |
| C/N=c1\c(F)cn(S(=O)(=O)c2cc(C)c(Cl)cc2C)c(=O)n1C [Compound F22] | – | 76 to 100 | 76 to 100 | – | – |
| C/N=c1\c(F)cn(S(=O)(=O)c2sc(C)nc2C)c(=O)n1C [Compound F23] | – | 26 to 50 | 76 to 100 | – | – |
| COc1ccc(S(=O)(=O)n2cc(F)/c(=N\C(=O)Oc3ccccc3)n(C)c2=O)cc1 [Compound F24, phenyl (5-fluoro-1-((4-methoxyphenyl)sulfonyl)-3-methyl-2-oxo-2,3-dihydropyrimidin-4(1H)-ylidene)carbamate] | 190 to 193 | – | – | 0 to 25 | 0 to 25 |
| Cc1ccc(S(=O)(=O)n2cc(F)/c(=N/C(=O)C(C)C)n(COC(=O)C(C)C)c2=O)cc1 [Compound F25, Z)-(5-fluoro-6-(isobutyrylimino)-2-oxo-3-tosyl-2,3-dihydropyrimidin-1(6H)-yl)methyl isobutyrate] | – | 0 to 25 | 76 to 100 | – | – |
| COc1ccc(S(=O)(=O)n2cc(F)/c(=N/C(C)=O)n(C)c2=O)cc1 [Compound F26] | – | 76 to 100 | 76 to 100 | – | – |
| C/N=c1\c(F)cn(S(=O)(=O)C2CC2)c(=O)n1C [Compound F28] | 102.2 to 104 | 0 to 25 | 51 to 75 | – | – |
| COc1ccc(S(=O)(=O)n2cc(F)/c(=N\C(C)=O)n(C)c2=O)cc1 [Compound F31, N-(5-fluoro-1-((4-methoxyphenyl)sulfonyl)-3-methyl-2-oxo-2,3-dihydropyrimidin-4(1H)-ylidene)acetamide] | – | 76 to 100 | 76 to 100 | – | – |
| [2H]C([2H])([2H])/N=c1\c(F)cn(S(=O)(=O)c2ccccc2)c(=O)n1C([2H])([2H])[2H] [Compound F61, 5-fluoro-1-(phenylsulfonyl)-3-trideuteriomethyl-4-(trideuteriomethylimino)-3,4-dihydropyrimidin-2(1H)-one] | – | 0 to 25 | 0 to 25 | – | – |
| [2H]C([2H])([2H])/N=c1\c(F)cn(S(=O)(=O)c2ccc(C)cc2)c(=O)n1C([2H])([2H])[2H] [Compound F62, 5-fluoro-1-((4-methylphenyl)sulfonyl)-3-trideuteriomethyl-4-(trideuteriomethylimino)-3,4-dihydropyrimidin-2(1H)-one] | – | 0 to 25 | 0 to 25 | – | – |
| [2H]C([2H])([2H])/N=c1\c(F)cn(S(=O)(=O)c2ccc(OC)cc2)c(=O)n1C([2H])([2H])[2H] [Compound F63, 5-fluoro-1-((4-methoxyphenyl)sulfonyl)-3-trideuteriomethyl-4-(trideuteriomethylimino)-3,4-dihydropyrimidin-2(1H)-one] | – | 0 to 25 | 0 to 25 | – | – |

Second part, led by results:

| melting point [°C] | Compound | pest or weed control at 100 ppm (Septoria tritici; [1]) [%] | pest or weed control at 100 ppm (Septoria tritici; [2]) [%] | pest or weed control at 100 ppm (Septoria tritici; 24 h, read-out: SEPTTR 100 PPM 1 DP (% Disease Control rating)) [%] | pest or weed control at 100 ppm (Septoria tritici; 72 h, read-out: SEPTTR 100 PPM 3 DC (% Disease Control rating)) [%] |
| --- | --- | --- | --- | --- | --- |
| 97 to 105 | C/N=c1\c(F)cn(S(=O)(=O)c2ccc(OC)cc2)c(=O)n1C [Compound F1, (E)-5-fluoro-1-((4-methoxyphenyl)sulfonyl)-3-methyl-4-(methylimino)-3,4-dihydropyrimidin-2(1H)-one] | 76 to 100 | 51 to 75 | – | – |
| 142 to 144 | C/N=c1\c(F)cn(S(=O)(=O)c2ccccc2)c(=O)n1C [Compound F2] | 76 to 100 | 51 to 75 | – | – |
| 117 to 123 | C/N=c1\c(F)cn(S(=O)(=O)c2ccc(C)cc2)c(=O)n1C [Compound F3] | 76 to 100 | 51 to 75 | – | – |
| 130 to 134 | C/N=c1\c(F)cn(S(=O)(=O)c2ccc(Cl)cc2)c(=O)n1C [Compound F5] | 76 to 100 | 76 to 100 | – | – |
| 139.2 to 140 | C/N=c1\c(F)cn(S(=O)(=O)c2ccc(OC(F)(F)F)cc2)c(=O)n1C [Compound F6] | 76 to 100 | 76 to 100 | – | – |
| 148.6 to 150.6 | C/N=c1\c(F)cn(S(=O)(=O)c2cccc(C#N)c2)c(=O)n1C [Compound F7] | 26 to 50 | 51 to 75 | – | – |
| 204 to 205.4 | C/N=c1\c(F)cn(S(=O)(=O)c2ccccc2OC)c(=O)n1C [Compound F8] | 76 to 100 | 76 to 100 | – | – |
| 149.4 to 151 | C/N=c1\c(F)cn(S(=O)(=O)c2ccc(C)c(Cl)c2)c(=O)n1C [Compound F10] | 76 to 100 | 51 to 75 | – | – |
| 111.4 to 112 | C/N=c1\c(F)cn(S(=O)(=O)c2cccc(OC)c2)c(=O)n1C [Compound F12] | 76 to 100 | 76 to 100 | – | – |
| 138.9 to 140.3 | C/N=c1\c(F)cn(S(=O)(=O)c2ccc(OC)c(F)c2)c(=O)n1C [Compound F13] | 76 to 100 | 76 to 100 | – | – |
| 137.3 to 138.9 | C/N=c1\c(F)cn(S(=O)(=O)c2cccc(F)c2)c(=O)n1C [Compound F14] | 76 to 100 | 51 to 75 | – | – |
| 123.7 to 125.8 | C/N=c1\c(F)cn(S(=O)(=O)c2cccc(C)c2)c(=O)n1C [Compound F16] | 26 to 50 | 0 to 25 | – | – |
| 121.1 to 122.6 | C/N=c1\c(F)cn(S(=O)(=O)c2ccsc2)c(=O)n1C [Compound F17] | 76 to 100 | 76 to 100 | – | – |
| 109 to 112 | C/N=c1\c(F)cn(S(=O)(=O)c2ccc(F)cc2Cl)c(=O)n1C [Compound F21] | – | – | – | – |
| 124 to 125 | COC(=O)/N=c1\c(F)cn(S(=O)(=O)c2ccc(OC)cc2)c(=O)n1C [Compound F27, methyl (5-fluoro-1-((4-methoxyphenyl)sulfonyl)-3-methyl-2-oxo-2,3-dihydropyrimidin-4(1H)-ylidene)carbamate] | 0 to 25 | 0 to 25 | – | – |
| 134.6 to 136.2 | CC(=O)/N=c1\c(F)cn(S(=O)(=O)c2ccc(C)cc2)c(=O)n1C [Compound F29] | 76 to 100 | 76 to 100 | – | – |
| 174 | CC(=O)/N=c1\c(F)cn(S(=O)(=O)c2ccccc2)c(=O)n1C [Compound F30] | 76 to 100 | 76 to 100 | – | – |
| 158 | CCc1ccc(S(=O)(=O)n2cc(F)/c(=N\C(C)=O)n(C)c2=O)cc1 [Compound F32] | 76 to 100 | 76 to 100 | – | – |
| 165 | CC(=O)/N=c1\c(F)cn(S(=O)(=O)c2ccc(C(C)C)cc2)c(=O)n1C [Compound F33] | 76 to 100 | 26 to 50 | – | – |
| 164 | CC(=O)/N=c1\c(F)cn(S(=O)(=O)c2cccc(C)c2)c(=O)n1C [Compound F34] | 76 to 100 | 0 to 25 | – | – |
| 173 | CC(=O)/N=c1\c(F)cn(S(=O)(=O)c2cc(C)c(Cl)cc2C)c(=O)n1C [Compound F35] | 76 to 100 | 26 to 50 | – | – |
| 154 | CC(=O)/N=c1\c(F)cn(S(=O)(=O)c2cc(Cl)sc2Cl)c(=O)n1C [Compound F36] | 76 to 100 | 51 to 75 | – | – |
